Two molecules from patent publication US7253177B2, “Synthesis and antimalarial activity of pyrrolo[3,2-f]quinazoline-1,3-diamine derivatives” (United States of America as Represented by the Secretary of …, priority 2004, dated 2007) can be followed below.

Each structure is given as a SMILES string. ≈ marks a conversion by molar mass, not a printed value. Some results are limits rather than exact numbers.

The test system of data set [1] is Plasmodium falciparum D-6 clone (CDC Sierra Leone I). The data set can be described thus: In vitro antimalarial study, [3H]hypoxanthine uptake, D-6 clone. It counts as cell-based. The method, then: (§1) B. Antimalarial Activities: (a). In Vitro Antimalarial Studies. The in vitro assays were conducted by using a modification of the semiautomated microdilution technique of Desjardins et al and Chulay et al.. Four P. falciparum malaria parasite clones, from CDC Indochina III (W-2), CDC Sierra Leone I (D-6), Southeast Asia Isolates (TM91C235) and RCS (Isolates from Brazil) were utilized in susceptibility testing. They were derived by direct visualization and micromanipulation from patient isolates. The W-2 clone is susceptible to mefloquine but resistant to chloroquine, sulfadoxine, pyrimethamine, and quinine, whereas the D-6 clone is naturally resistant to mefloquine but susceptible to chloroquine, sulfadoxine, pyrimethamine and quinine. Test compounds were initially dissolved in DMSO and diluted 400 fold in RPMI 1640 culture medium supplemented with 25 mM Hepes, 32 mM NaHCO3 and 10% Albumax I (Gibco BRL, Grand Island, N.Y.). These solutions were subsequently serially diluted two-fold with a Biomek 1000 (Beckman, Fullerton, Calif.) over 11 different concentrations. The parasites were exposed to serial dilutions of each compound for 48 hrs and incubated at 37° C. with 5% O2, 5% CO2 and 90% N2 prior to the addition of [^3H]hypoxanthine. After a further incubation of 18 hrs, parasite DNA was harvested from each microtiter well using Packard Filtermate 196 Harvester (Meriden, Conn.) onto glass filters. Uptake of [^3H]hypoxanthine was measured with a Packard Topcount Scintillation. Concentration-response data were analyzed by a non-linear regression logistic dose response model and the IC50 values (50% inhibitory concentrations) for each compound were calculated. (Table 3). (b). In Vivo Antimalarial Studies against P. berghei in mice: The in vivo efficacy of the artelinic acid analogs were determined in a modified Thompson test. This test measures the survivability of mice and parasitemia clearance following administration of drug on days 3-5 post infection. In brief, 5×10^6 P. berghei-infected erythrocytes (KBG-173 strain) were inoculated intraperitoneally to female mice that weighed 24-30 g. By day three post-infection, parasitemia ranged from 1.0-3.7%. Each drug, dissolved in 5% sodium bicarbonate, was administered PO twice daily from day 3-5 post-infection. Total doses for each drug ranged from 1.5-384 mg/kg with 8 mice included in each dosage group. The percent suppression of parasitemia in the treated mice compared to the untreated controls was determined for each test compound; the SD-50 (fifty percent suppression dose) and SD-90 were determined from a non-linear regression logistic dose response fit at day 6 parasitemia data. Survival of mice to day 60 post-infection was considered a cure (C). Compounds were considered active (A) when the survival time of the treated mice was greater than twice the control mice, i.e., 12-14 day (Table 4-5). (c). Sporozoite Induced Test Each compound is ground with a mortar & pestle and suspended in 0.5% hydroxyethylcellulose—0.1% Tween 80 for compounds to be administered PO and those given SC are suspended in peanut oil. Each compound is prepared at 3 different dose levels as requested by WRAIR. Compounds are administered either PO or SC to mice once 4 hr before inoculation of sporozoites. Four-week-old male CD-1 mice, purchased from Charles River and weighing 16-17 g, are placed 5 per cage and allowed to acclimate for 4 days before being treated and then inoculated with sporozoites. They are fed food and water ad-lib and maintained at 76° F. with 12 hr light and 12 hr darkness. The cages and water bottles are changed biweekly. The mice are weighed on Days 0, 3 and 6 then biweekly when blood films are taken. Plasmodium yoelii (17×) is used to infect mice that will be used to infect the mosquitoes. Mice are given a single dose of test compound 4 hr before being inoculated intraperitoneally with 2.5×10^5 sporozoites of Plasmodium yoelii on Day 0. […]

In data set [2] the test system is Plasmodium falciparum W-2 clone (CDC Indochina III). The data set can be described thus: In vitro antimalarial study, [3H]hypoxanthine uptake, W-2 clone. It counts as cell-based. The protocol:
as §1

Data set [3] can be described thus: Death rates after single intragastric treatment in rats. The class given is in vivo.

As for `CCOC(=O)Nc1nc(NC(=O)OCC)c2c(ccc3c2ccn3Cc2ccccc2C(F)(F)F)n1` [Compound 2b], the “IC50 D-6” value in data set [1] (P. falciparum D-6 clone) is 7.9727 ng/mL (≈ 15.9 nM). For the same molecule, the “IC50 W-2” value in data set [2] (P. falciparum W-2 clone) came out at 127.80 ng/mL (≈ 255 nM). For the same molecule, the Deaths is recorded as 0/4 in data set [3] (rats n=4, single intragastric 50 mg/kg in 1% CMC suspension); 0/4 in data set [3] (rats n=4, single intragastric 100 mg/kg in 1% CMC suspension); 0/4 in data set [3] (rats n=4, single intragastric 200 mg/kg in 1% CMC suspension); 0/4 in data set [3] (rats n=4, single intragastric 400 mg/kg in 1% CMC suspension); 1/4 in data set [3] (rats n=4, single intragastric 800 mg/kg in 1% CMC suspension). Further, in data set [3] (rats, 800 mg/kg, first cell after Deaths (day uncertain)), the “Day of Death: number of deaths” value amounted to 1.
With `CC(=O)N(C(C)=O)c1nc(N(C(C)=O)C(C)=O)c2c(ccc3c2ccn3Cc2ccccc2C(F)(F)F)n1` [Compound 3e, 1,3-Bis(diacetylamino)-7-(2-trifluoromethyl)benzyl-7H-pyrrolo[3,2-f]quinazoline], the IC50 (as a rule, the concentration that inhibits the measured activity by half) in data set [1] (Plasmodium falciparum, read-out: IC50 D-6) was 0.0236 ng/mL (≈ 0.0449 nM); in data set [2] (Plasmodium falciparum, read-out: IC50 W-2) it was 0.0752 ng/mL (≈ 0.143 nM). Besides, the therapeutic index in data set [3] (rats) is recorded as more than 160. In addition, in data set [3] (up to 800 mg by a single oral dose), the “drug-related deaths in rats” value was “no drug-related deaths”.
